The text below walks through data of patent publication US12161637B2, “Anti-cancer gold complex, process of synthesis and method of treatment thereof” (King Saud University, priority 2022, dated 2024).

Common to all, as to type: cell-based
Series [1] relates to MCF-7 breast cancer cells. As to the kind of experiment: Cell viability by MTT assay. To be noted: read-out: IC50, cell viability (cytotoxicity). An excerpt: Materials and methods: All organic ligands were purchased from Sigma-Aldrich and gold salts from Strom Chemicals USA. Breast cancer cell lines MCF-7 were obtained from American Type Culture Collection, ATCC (Virginia, USA). Dulbecco's Modified Eagle's Medium (DMEM), Fetal Bovine Serum (FBS), and 0.25% Trypsin 0.1% EDTA were obtained from Gibco (Grand Island, NY). The 3-(4,5-dimethylthiazol-2-yl)-2,5-diphenyltetrazolium bromide (MTT) and DMSO were purchased from Sigma-Aldrich (St. Louis, MO).
Cell viability was determined by 3-(4,5-dimethylthiazol-2-yl)-2,5-diphenyltetrazolium bromide (MTT) assay. Breast cancer cells, MCF-7, were seeded in a 96-well tissue culture plate at 10,000 cells/well in 200 μl of DMEM. […] Then, 20 μl of MTT (5 mg/mL) was added to the each well and incubated in a CO2 incubator at 37° C. in the dark for 3 h. After incubation, a purple-colored formazan dye is produced and appeared as dark crystals in the bottom of the wells. To dissolve the formazan crystals, the culture medium was discarded and 100 μL of isopropanol were added to each well. The absorbance was recorded at 570 nm against reagent blank. The cell viability was calculated by the formula below: Cell viability (%)=[Absorbance Compound/Absorbance DMSO]*100
Background: Tetrazolium dyes change colour on reduction, which living cells bring about.

Series [2] deals with MCF-7 breast cancer cell line. Put plainly: Apoptosis analysis, Muse Annexin V Live & Dead Cell Kit, flow cytometry. The note with it: 24 h, versus control.
Experimental: MCF-7 cells were seeded in 6 well plates at 1.5×10^4 cells per well. […] DMSO was used as a negative control. The final DMSO concentration in each well was less than 0.1%. The harvested cells were stained with Annexin V-FITC and Dead Cell reagent following the manufacture's protocol. Then, the percentage of apoptotic cells was estimated by flow cytometry.
In series [3] the test system is MCF-7 cells. As to the kind of experiment: Mitochondrial membrane potential analysis, Muse MitoPotential Kit, flow cytometry. To be noted: for percentage of depolarized cancer cells (mitochondrial membrane potential): 24 h. Here is the method: Mitochondrial membrane potential is an important parameter to assess the integrity of mitochondria, which is a potential target in cancer therapeutics. The loss of mitochondrial membrane potential has been known to be associated with early stages of apoptosis and reactive oxygen species (ROS) induction. To assess the mitochondrial membrane potential, Muse® MitoPotential Kit (Luminex, IL, USA) was used. MCF-7 cells were seeded in a 6 well plate at 1.5×10^4 cells/well. […] DMSO was used as a negative control. The final DMSO concentration in each well was less than 0.1%. Then, cells were stained with MitoPotential reagents following the manufacture's protocol. The percentage of depolarized/live cells was estimated by flow cytometry.
A general note: Flow cytometry measures light scatter and fluorescence of single cells or particles in a stream.

Series [4] concerns MCF-7 cells. Put plainly: Oxidative stress analysis (ROS generation), Muse Oxidative Stress Kit, flow cytometry. To be noted: 24 h. As for the experimental part: The induction of oxidative stress via ROS generation endogenously in cancer cells is a potential target of anticancer agents. Oxidative stress causes irreversible cellular damage which induces apoptosis in concentration-dependent manner. MCF-7 cells were plated at 1.5×10^4 cells/well using a 6 well plate to estimate the generation of reactive oxygen species (ROS). […] DMSO was used as a negative control. The final DMSO concentration in each well was less than 0.1%. Then, the cells were harvested and stained with Muse® Oxidative Stress Kit (Luminex, IL, USA) following the manufacture's protocol. The percentage of cells that were undergoing oxidative stress was measured by flow cytometry.

Where [5] appears, read: MCF-7, higher concentration (5 μM).
Where [6] appears, read: MCF-7, lower concentration (1 μM).

A word on the IC50: it is the concentration at which inhibition is half-maximal.

Like-named read-outs stand apart in the source and are kept apart here.

As to `O=Cc1ccnc(-c2cc(C=O)ccn2)c1.S=C([S][Au+2])N(Cc1ccccc1)Cc1ccccc1` [DDBDG, dibenzyldithiocarbamato-2,2′-bipyridine-4,4′-dicarboxaldehyde gold (III)], the IC50 in series [1] (MCF-7, 24 h treatment) was determined as 875 nM. In addition, the “induction of apoptosis (early and late combined)” value in series [2] (MCF-7, 1 μM) worked out at 2.2 folds; in series [2] (MCF-7, 3 μM) it was 4.4 folds; in series [2] (MCF-7, 10 μM) it was 5.5 folds. In addition, in the series with MCF-7 cells [3] (MCF-7, 24 h), the “mitochondrial membrane potential depolarization compared to positive control Sorafenib” value is “roughly three-folds higher”. Also, the results for the “percentage of depolarized cancer cells (mitochondrial membrane potential)” value with MCF-7 cells [3] (setting [5]) and in the series on MCF-7 cells [3] (setting [6]) were 27.8% and 27.0%, respectively. The ROS generation with MCF-7 cells [4] (MCF-7, 1 μM) came out at 125.53%; in the series on MCF-7 cells [4] (MCF-7, 5 μM), 103.47%.
For `CNC(=O)c1cc(Oc2ccc(NC(=O)Nc3ccc(Cl)c(C(F)(F)F)c3)cc2)ccn1` [Sorafenib, reference compound], the IC50 in series [1] (Homo sapiens, MCF7, MCF-7, 24 h treatment) came out at 4440 nM. The “percentage of depolarized cancer cells (mitochondrial membrane potential)” value in the series with MCF-7 cells [3] (setting [5]) worked out at 12.0%; in the series on MCF-7 cells [3] (setting [6]), 2.7%. Moreover, the ROS generation in the series on MCF-7 cells [4] (MCF-7, 1 μM) was 73.76%; with MCF-7 cells [4] (MCF-7, 5 μM) it was 122.11%.
